According to PubChem BioAssay AID1963843 (Molecular Pharmacology Branch, DTP, NCI, 2024):

Tested on: 616215-338-R-J1-PDC complex spheroid viability
Test: Anticancer human tumor 616215-338-R-J1-PDC patient-derived colon adenocarcinoma cell line growth inhibition [POLQ]
Settings: for IC50: curve of first compound; for viability, T/C: stronger effect = lower value
In short: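 Growth inhibition in 3D: complex spheroids (tumor PDC, HUVEC, MSC) treated with POLQ inhibitor combinations; where Cmax unknown, highest tested concentration 10 microM, except SN-38 at 1 microM.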

[1] = second compound 0.0316 µM, first compound 0.0316 µM
[2] = second compound 0.0316 µM, first compound 0.1 µM
[3] = second compound 0.0316 µM, first compound 0.316 µM
[4] = second compound 0.0316 µM, first compound 1 µM
[5] = second compound 0.0316 µM, first compound 3.16 µM
[6] = second compound 0.0316 µM, first compound 10 µM
[7] = second compound 0.1 µM, first compound 0.0316 µM
[8] = second compound 0.1 µM, first compound 0.1 µM
[9] = second compound 0.1 µM, first compound 0.316 µM
[10] = second compound 0.1 µM, first compound 1 µM
[11] = second compound 0.1 µM, first compound 3.16 µM
[12] = second compound 0.1 µM, first compound 10 µM
[13] = second compound 0.316 µM, first compound 0.0316 µM
[14] = second compound 0.316 µM, first compound 0.1 µM
[15] = second compound 0.316 µM, first compound 0.316 µM
[16] = second compound 0.316 µM, first compound 1 µM
[17] = second compound 0.316 µM, first compound 3.16 µM
[18] = second compound 0.316 µM, first compound 10 µM
[19] = second compound 1 µM, first compound 0.0316 µM
[20] = second compound 1 µM, first compound 0.1 µM
[21] = second compound 1 µM, first compound 0.316 µM
[22] = second compound 1 µM, first compound 1 µM
[23] = second compound 1 µM, first compound 3.16 µM
[24] = second compound 1 µM, first compound 10 µM
[25] = second compound 3.16 µM, first compound 0.0316 µM
[26] = second compound 3.16 µM, first compound 0.1 µM
[27] = second compound 3.16 µM, first compound 0.316 µM
[28] = second compound 3.16 µM, first compound 1 µM
[29] = second compound 3.16 µM, first compound 3.16 µM
[30] = second compound 3.16 µM, first compound 10 µM
[31] = second compound 10 µM, first compound 0.0316 µM
[32] = second compound 10 µM, first compound 0.1 µM
[33] = second compound 10 µM, first compound 0.316 µM
[34] = second compound 10 µM, first compound 1 µM
[35] = second compound 10 µM, first compound 3.16 µM
[36] = second compound 10 µM, first compound 10 µM
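Further: spheroids exposed to compounds for one week before readout.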
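Wherever viability, T/C is given: percent viability relative to DMSO vehicle wells taken as 100%.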

**Q.** Which IC50 (second compound 0.0316 µM) does the source give for `CCCS(=O)(=O)Nc1ccc(F)c(C(=O)c2c[nH]c3ncc(-c4ccc(Cl)cc4)cc23)c1F` + Cc1cccc(N(C)C(=O)C2C(O)CCN2c2nc(C)cc(C(F)(F)F)c2C#N)c1 here?
**A.** 5.76 µM

**Q.** What about the IC50 (second compound 0.1 µM) of the same compound?
**A.** 5.71 µM

**Q.** And the IC50 (second compound 0.316 µM)?
**A.** 5.24 µM

**Q.** And the IC50 (second compound 1 µM)?
**A.** 5.51 µM

**Q.** And the IC50 (second compound 3.16 µM)?
**A.** 5.31 µM

**Q.** What about the IC50 (second compound 10 µM) of the same compound?
**A.** 4.29 µM

**Q.** What about the viability, T/C [1] of the same compound?
**A.** 114%

**Q.** What about the viability, T/C [2] of the same compound?
**A.** 95.5%

**Q.** And the viability, T/C [3]?
**A.** 101%

**Q.** And the viability, T/C [4]?
**A.** 105%

**Q.** What about the viability, T/C [5] of the same compound?
**A.** 89.5%

**Q.** What about the viability, T/C [6] of the same compound?
**A.** 13.4%

**Q.** What about the viability, T/C [7] of the same compound?
**A.** 115%

**Q.** What about the viability, T/C [8] of the same compound?
**A.** 109%

**Q.** And the viability, T/C [9]?
**A.** 101%

**Q.** And the viability, T/C [10]?
**A.** 108%

**Q.** What about the viability, T/C [11] of the same compound?
**A.** 91%

**Q.** And the viability, T/C [12]?
**A.** 11.2%

**Q.** What about the viability, T/C [13] of the same compound?
**A.** 112%

**Q.** What about the viability, T/C [14] of the same compound?
**A.** 107%

**Q.** What about the viability, T/C [15] of the same compound?
**A.** 99%

**Q.** What about the viability, T/C [16] of the same compound?
**A.** 97.5%

**Q.** What about the viability, T/C [17] of the same compound?
**A.** 83.4%

**Q.** And the viability, T/C [18]?
**A.** 9.28%

**Q.** What about the viability, T/C [19] of the same compound?
**A.** 99.5%

**Q.** And the viability, T/C [20]?
**A.** 101%

**Q.** And the viability, T/C [21]?
**A.** 104%

**Q.** And the viability, T/C [22]?
**A.** 105%

**Q.** What about the viability, T/C [23] of the same compound?
**A.** 86.9%

**Q.** And the viability, T/C [24]?
**A.** 10.2%

**Q.** What about the viability, T/C [25] of the same compound?
**A.** 114%

**Q.** And the viability, T/C [26]?
**A.** 98.6%

**Q.** And the viability, T/C [27]?
**A.** 99.4%

**Q.** And the viability, T/C [28]?
**A.** 101%

**Q.** What about the viability, T/C [29] of the same compound?
**A.** 83.2%

**Q.** And the viability, T/C [30]?
**A.** 10%

**Q.** And the viability, T/C [31]?
**A.** 105%

**Q.** What about the viability, T/C [32] of the same compound?
**A.** 100%

**Q.** What about the viability, T/C [33] of the same compound?
**A.** 92.7%

**Q.** And the viability, T/C [34]?
**A.** 98.1%

**Q.** What about the viability, T/C [35] of the same compound?
**A.** 65.8%

**Q.** What about the viability, T/C [36] of the same compound?
**A.** 7.05%

**Q.** Which results are given for `CNCc1ccc(-c2[nH]c3cc(F)cc4c3c2CCNC4=O)cc1` + Cc1cccc(N(C)C(=O)C2C(O)CCN2c2nc(C)cc(C(F)(F)F)c2C#N)c1?
**A.** IC50 (second compound 0.0316 µM): > 10 µM; IC50 (second compound 0.1 µM): > 10 µM; IC50 (second compound 0.316 µM): > 10 µM; IC50 (second compound 1 µM): > 10 µM; IC50 (second compound 3.16 µM): > 10 µM; IC50 (second compound 10 µM): > 10 µM; viability, T/C [1]: 96.9%; viability, T/C [2]: 99.2%; viability, T/C [3]: 105%; viability, T/C [4]: 105%; viability, T/C [5]: 106%; viability, T/C [6]: 86.2%; viability, T/C [7]: 101%; viability, T/C [8]: 97.7%; viability, T/C [9]: 95.5%; viability, T/C [10]: 101%; viability, T/C [11]: 108%; viability, T/C [12]: 73.8%; viability, T/C [13]: 99.8%; viability, T/C [14]: 103%; viability, T/C [15]: 96.6%; viability, T/C [16]: 105%; viability, T/C [17]: 105%; viability, T/C [18]: 72.8%; viability, T/C [19]: 107%; viability, T/C [20]: 108%; viability, T/C [21]: 102%; viability, T/C [22]: 103%; viability, T/C [23]: 112%; viability, T/C [24]: 70%; viability, T/C [25]: 111%; viability, T/C [26]: 109%; viability, T/C [27]: 111%; viability, T/C [28]: 104%; viability, T/C [29]: 102%; viability, T/C [30]: 65.4%; viability, T/C [31]: 122%; viability, T/C [32]: 105%; viability, T/C [33]: 109%; viability, T/C [34]: 107%; viability, T/C [35]: 108%; viability, T/C [36]: 74.7%

**Q.** For `COc1ccc([C@@H](O)c2cc(-c3ncnc4cc(N5CCOCC5)ccc34)c(F)cc2Cl)nn1` + Cc1cccc(N(C)C(=O)C2C(O)CCN2c2nc(C)cc(C(F)(F)F)c2C#N)c1, which IC50 (second compound 0.0316 µM) is on record?
**A.** > 10 µM

**Q.** And the IC50 (second compound 0.1 µM)?
**A.** > 10 µM

**Q.** And the IC50 (second compound 0.316 µM)?
**A.** > 10 µM

**Q.** And the IC50 (second compound 1 µM)?
**A.** > 10 µM

**Q.** What about the IC50 (second compound 3.16 µM) of the same compound?
**A.** > 10 µM

**Q.** And the IC50 (second compound 10 µM)?
**A.** > 10 µM

**Q.** And the viability, T/C [1]?
**A.** 97.8%

**Q.** What about the viability, T/C [2] of the same compound?
**A.** 108%

**Q.** And the viability, T/C [3]?
**A.** 94.8%

**Q.** And the viability, T/C [4]?
**A.** 113%

**Q.** What about the viability, T/C [5] of the same compound?
**A.** 101%

**Q.** What about the viability, T/C [6] of the same compound?
**A.** 78.7%

**Q.** And the viability, T/C [7]?
**A.** 92.6%

**Q.** And the viability, T/C [8]?
**A.** 108%

**Q.** And the viability, T/C [9]?
**A.** 108%

**Q.** What about the viability, T/C [10] of the same compound?
**A.** 109%

**Q.** What about the viability, T/C [11] of the same compound?
**A.** 100%

**Q.** And the viability, T/C [12]?
**A.** 72.2%

**Q.** And the viability, T/C [13]?
**A.** 108%

**Q.** What about the viability, T/C [14] of the same compound?
**A.** 108%

**Q.** And the viability, T/C [15]?
**A.** 100%

**Q.** And the viability, T/C [16]?
**A.** 111%

**Q.** What about the viability, T/C [17] of the same compound?
**A.** 109%

**Q.** What about the viability, T/C [18] of the same compound?
**A.** 73.5%

**Q.** What about the viability, T/C [19] of the same compound?
**A.** 114%

**Q.** What about the viability, T/C [20] of the same compound?
**A.** 111%

**Q.** And the viability, T/C [21]?
**A.** 109%

**Q.** What about the viability, T/C [22] of the same compound?
**A.** 122%

**Q.** And the viability, T/C [23]?
**A.** 103%

**Q.** And the viability, T/C [24]?
**A.** 70.5%

**Q.** And the viability, T/C [25]?
**A.** 97.5%

**Q.** And the viability, T/C [26]?
**A.** 104%

**Q.** And the viability, T/C [27]?
**A.** 102%

**Q.** What about the viability, T/C [28] of the same compound?
**A.** 102%

**Q.** And the viability, T/C [29]?
**A.** 105%

**Q.** And the viability, T/C [30]?
**A.** 80.3%

**Q.** What about the viability, T/C [31] of the same compound?
**A.** 112%

**Q.** What about the viability, T/C [32] of the same compound?
**A.** 100%

**Q.** And the viability, T/C [33]?
**A.** 99.8%

**Q.** What about the viability, T/C [34] of the same compound?
**A.** 111%

**Q.** And the viability, T/C [35]?
**A.** 99.8%

**Q.** And the viability, T/C [36]?
**A.** 55.6%

**Q.** Which results are given for `O=C(c1cc(Cc2n[nH]c(=O)c3ccccc23)ccc1F)N1CCN(C(=O)C2CC2)CC1` + Cc1cccc(N(C)C(=O)C2C(O)CCN2c2nc(C)cc(C(F)(F)F)c2C#N)c1?
**A.** IC50 (second compound 0.0316 µM): > 10 µM; IC50 (second compound 0.1 µM): > 10 µM; IC50 (second compound 0.316 µM): > 10 µM; IC50 (second compound 1 µM): > 10 µM; IC50 (second compound 3.16 µM): > 10 µM; IC50 (second compound 10 µM): > 10 µM; viability, T/C [1]: 105%; viability, T/C [2]: 93.8%; viability, T/C [3]: 102%; viability, T/C [4]: 98.4%; viability, T/C [5]: 103%; viability, T/C [6]: 87.8%; viability, T/C [7]: 103%; viability, T/C [8]: 98.4%; viability, T/C [9]: 107%; viability, T/C [10]: 107%; viability, T/C [11]: 99.9%; viability, T/C [12]: 94.3%; viability, T/C [13]: 95.3%; viability, T/C [14]: 102%; viability, T/C [15]: 108%; viability, T/C [16]: 98.9%; viability, T/C [17]: 108%; viability, T/C [18]: 89.2%; viability, T/C [19]: 111%; viability, T/C [20]: 106%; viability, T/C [21]: 105%; viability, T/C [22]: 101%; viability, T/C [23]: 102%; viability, T/C [24]: 78%; viability, T/C [25]: 103%; viability, T/C [26]: 102%; viability, T/C [27]: 95.6%; viability, T/C [28]: 103%; viability, T/C [29]: 97.3%; viability, T/C [30]: 88.4%; viability, T/C [31]: 113%; viability, T/C [32]: 101%; viability, T/C [33]: 100%; viability, T/C [34]: 104%; viability, T/C [35]: 110%; viability, T/C [36]: 86.6%
